Experimental data: EPA's ToxRefDB 2

Legend:
rat [1] = conditions: Carcinogenicity, fischer, Oral, Gavage/Intubation, dose end: 103 week, group: systemic
rat [2] = conditions: Prenatal developmental toxicity study, sprague dawley, Oral, Gavage/Intubation, dose end: 20 GD
mouse [3] = conditions: Carcinogenicity; b6c3f1; Oral; Gavage/Intubation; dose end: 103 week; group: systemic; systemic / pathology microscopic / stomach / hyperplasia + systemic / pathology microscopic / stomach / inflammation
mouse [4] = conditions: Sub-acute repeat dose toxicity; b6c3f1; Oral; Gavage/Intubation; dose end: 14 day; group: systemic; systemic / in life observation / mortality / mortality
rat [5] = conditions: Sub-acute repeat dose toxicity, fischer, Oral, Gavage/Intubation, dose end: 14 day, group: systemic
rat [6] = conditions: Subchronic oral toxicity in rodents, fischer, Gavage/Intubation, dose end: 13 week, group: systemic
rat [7] = conditions: Sub-acute repeat dose toxicity, sprague dawley, Oral, Gavage/Intubation, dose end: 22 day, group: systemic
rat [8] = conditions: Prenatal developmental toxicity study, Oral, Gavage/Intubation, dose end: 18 GD
rat [9] = conditions: Subchronic oral toxicity in rodents, Gavage/Intubation, dose end: 64 day, group: systemic, systemic / in life observation / body weight / body weight + systemic / in life observation / clinical signs / motor activity + systemic / …
rat [10] = conditions: Fertility (Segment I); sprague dawley; Oral; Gavage/Intubation; dose end: 1 generation; group: parental; systemic / in life observation / body weight / body weight gain
mouse [11] = conditions: Carcinogenicity, Oral, Feed, dose end: 720 day, group: systemic
rat [12] = conditions: Sub-acute repeat dose toxicity, sprague dawley, Oral, Gavage/Intubation, dose end: 36 day, group: systemic
[13] = systemic / pathology microscopic / liver / fibrosis + systemic / pathology microscopic / liver / hyperplasia + systemic / pathology …
[14] = systemic / pathology microscopic / liver / pigmentation
[15] = group: developmental, developmental / developmental malformation / bone / ossification sites + systemic / in life observation / body weight / fetal weight
[16] = group: maternal, systemic / in life observation / body weight / body weight gain + systemic / in life observation / food consumption / food consumption + …
[17] = systemic / pathology gross / intestine large / enlarged + systemic / pathology gross / liver / mottling
[18] = systemic / pathology microscopic / liver / basophilic focus + systemic / pathology microscopic / liver / hypertrophy + systemic / pathology …
[19] = systemic / in life observation / body weight / body weight + systemic / in life observation / body weight / body weight gain + systemic / in…
[20] = systemic / in life observation / body weight / body weight gain
[21] = group: developmental, developmental / developmental malformation / bone / fused + developmental / developmental malformation / bone / delayed ossification + …
[22] = group: maternal, systemic / in life observation / body weight / body weight + systemic / in life observation / body weight / body weight gain + systemic / in…
[23] = group: maternal, systemic / in life observation / body weight / body weight gain + systemic / in life observation / food consumption / food consumption
[24] = systemic / hematology / [other] / [other] + systemic / in life observation / body weight / body weight gain + systemic / in life observation…
[25] = systemic / in life observation / mortality / mortality
[26] = systemic / in life observation / body weight / body weight gain + systemic / in life observation / water consumption / water consumption
[27] = systemic / in life observation / water consumption / water consumption

Question: With C=CCOC(=O)c1ccccc1C(=O)OCC=C [Diallyl phthalate] as the molecule, how does the LOAEL (rat [1]; [13]) read?
Answer: 100 mg/kg/day

Question: And the NOAEL (rat [1]; [13])?
Answer: 50 mg/kg/day

Question: What about the LEL (rat [1]; [14]) of the same molecule?
Answer: 50 mg/kg/day

Question: And the NEL (rat [1]; [14])?
Answer: < 50 mg/kg/day

Question: And the LOAEL (rat [2]; [15])?
Answer: > 250 mg/kg/day

Question: And the NEL (rat [2]; [15])?
Answer: 150 mg/kg/day

Question: And the NOAEL (rat [2]; [15])?
Answer: ≥ 250 mg/kg/day

Question: And the LEL (rat [2]; group: developmental, systemic / in life observation / body weight / fetal weight)?
Answer: 200 mg/kg/day

Question: And the LOAEL (rat [2]; [16])?
Answer: > 250 mg/kg/day

Question: What about the NEL (rat [2]; [16]) of the same molecule?
Answer: 100 mg/kg/day

Question: And the NOAEL (rat [2]; [16])?
Answer: ≥ 250 mg/kg/day

Question: What about the LEL (rat [2]; group: maternal, systemic / pathology gross / liver / discolored + systemic / pathology gross / liver / mottling) of the same molecule?
Answer: 150 mg/kg/day

Question: What about the LEL (mouse [3]) of the same molecule?
Answer: 150 mg/kg/day

Question: And the LOAEL (mouse [3])?
Answer: 150 mg/kg/day

Question: And the NEL (mouse [3])?
Answer: < 150 mg/kg/day

Question: And the NOAEL (mouse [3])?
Answer: < 150 mg/kg/day

Question: And the LEL (mouse [4])?
Answer: 400 mg/kg/day

Question: And the LOAEL (mouse [4])?
Answer: > 600 mg/kg/day

Question: What about the NEL (mouse [4]) of the same molecule?
Answer: 200 mg/kg/day

Question: And the NOAEL (mouse [4])?
Answer: ≥ 600 mg/kg/day

Question: What about the LEL (rat [5]; [17]) of the same molecule?
Answer: 50 mg/kg/day

Question: What about the NEL (rat [5]; [17]) of the same molecule?
Answer: < 50 mg/kg/day

Question: And the NOAEL (rat [5]; systemic / pathology gross / liver / discolored + systemic / pathology gross / liver / enlarged + systemic / pathology gross / liver / …)?
Answer: 100 mg/kg/day

Question: And the LOAEL (rat [5]; systemic / pathology gross / liver / mottling + systemic / pathology gross / liver / discolored + systemic / pathology gross / liver / …)?
Answer: 200 mg/kg/day

Question: What about the NOAEL (rat [6]; systemic / in life observation / clinical signs / defecation (diarrhea) + systemic / in life observation / clinical signs / emaciation + …) of the same molecule?
Answer: 100 mg/kg/day

Question: What about the LEL (rat [6]; [18]) of the same molecule?
Answer: 50 mg/kg/day

Question: And the LOAEL (rat [6]; [18])?
Answer: 200 mg/kg/day

Question: And the NEL (rat [6]; [18])?
Answer: 25 mg/kg/day

Question: What does the source list for FC(F)(F)c1ccc2c(c1)[C@H]1CNC[C@@H]2C1?
Answer: LOAEL (rat [7]; [19]): > 7 mg/kg/day; NOAEL (rat [7]; [19]): ≥ 7 mg/kg/day; LEL (rat [7]; [20]): 1 mg/kg/day; NEL (rat [7]; [20]): < 1 mg/kg/day; LEL (rat [8]; group: developmental, developmental / developmental malformation / bone / delayed ossification + developmental / developmental malformation / bone / fused + …): 3 mg/kg/day; LOAEL (rat [8]; [21]): > 7 mg/kg/day; NOAEL (rat [8]; [21]): ≥ 7 mg/kg/day; LOAEL (rat [8]; [22]): > 7 mg/kg/day; NOAEL (rat [8]; [22]): ≥ 7 mg/kg/day; LEL (rat [8]; [23]): 1 mg/kg/day; NEL (rat [8]; [23]): < 1 mg/kg/day; LEL (rat [9]): 3 mg/kg/day; LOAEL (rat [9]): > 3 mg/kg/day; NEL (rat [9]): 1 mg/kg/day; NOAEL (rat [9]): ≥ 3 mg/kg/day

Question: Which results are given for CS(=O)(=O)N[C@@H](CCCCN)C(=O)NC[C@H](CC1(C(=O)N[C@@H](Cc2ccc(O)cc2)C(=O)O)CCCC1)C(=O)O [Sampatrilat]?
Answer: LEL (rat [10]): 200 mg/kg/day; LOAEL (rat [10]): > 1000 mg/kg/day; NEL (rat [10]): 50 mg/kg/day; NOAEL (rat [10]): ≥ 1000 mg/kg/day; LOAEL (mouse [11]; [24]): > 600 mg/kg/day; NOAEL (mouse [11]; [24]): ≥ 600 mg/kg/day; LEL (mouse [11]; [25]): 40 mg/kg/day; NEL (mouse [11]; [25]): < 40 mg/kg/day; LOAEL (rat [12]; [26]): > 300 mg/kg/day; NOAEL (rat [12]; [26]): ≥ 300 mg/kg/day; LEL (rat [12]; [27]): 30 mg/kg/day; NEL (rat [12]; [27]): < 30 mg/kg/day
